Test results from patent publication US20260265316A1, “IMMUNOTHERAPEUTIC METHODS, COMPOUNDS, AND COMPOSITIONS FOR TREATING OR PREVENTING CELIAC DISEASE” (DBV Technologies, priority 2023, published 2026).

Method: Freeze-dried aliquots of the three gliadin polypeptide constructs Cv6, Av6, and 4K, as well as the four building blocks BB1, BB2a, BB3a, and BB4a were reconstituted in pure water, loaded on a PET-Ti backing film and dried in an oven (at ~30° C.). Immediately after drying, dry deposits were reconstituted at five different molarities (approximately 1.8, 0.91, 0.45, 0.091 or 0.045 mM) by pipetting up and down with either pure water (A), PBS 1× (B), or artificial perspiration (C). The concentration in soluble material was measured by HPLC at 215 nm from the solutions recovered from PET-Ti backing films. Data are median+interquartile range of the different molarities tested. Data are expressed as the percentage of soluble material recovered, based on the expected concentration (all values above 100% were set to 100).
Immediately after drying, dry deposits were reconstituted at five different concentrations (20, 10, 5, 1 and 0.5 mg/mL) by pipetting up and down with either pure water (A), PBS 1× (B), or artificial perspiration (C). The concentration in soluble material was measured by HPLC at 215 nm from the solutions recovered from PET-Ti backing films. Data are presented as median+interquartile range of the different molarities tested. Data are expressed as the percentage of soluble material recovered, based on the expected concentration (all values above 100% were set to 100). (D) As an illustration, photographs of the reconstitution of dry deposits with pure water are shown and annotated.
Immediately after drying, deposits were reconstituted by pipetting up and down with each of pure water, PBS 1× at pH 7.0, and artificial perspiration at pH 4.5, each at five different molarities (approximately 1.8, 0.91, 0.45, 0.091, and 0.045 mM). The concentration in soluble material was measured by HPLC at 215 nm.
Immediately after drying, patch deposits were reconstituted by pipetting up and down with each of pure water, PBS 1× at pH 7.0, and artificial perspiration at pH 4.5, at five different concentrations (20, 10, 5, 1, and 0.5 mg/mL). The concentration in soluble material was measured by HPLC at 215 nm.

median percentage of soluble material recovered from the patch backing film | Substance
above 80% | H-PSGEGSFQPSQENPQ-NH2 [BB4a]
above 80% | H-PQPEQPEQPFPEQPQ-NH2 [BB2a]
